{
  "source": "patent US8557286B1",
  "about": "“Method for producing a water-insoluble amorphous or partially amorphous controlled release matrix” (EuroCeltique, S.A., priority 2000, dated 2013)",
  "experiment": "Release of the active agent in a paddle agitator model according to USP",
  "format": "physicochemical",
  "conditions": "total dose of 25 mg; pure caffeine, not retarded, filled in a capsule; FIG. 3",
  "from_the_text": "In this context it is once again pointed out that the degree of destructurization into the glass state is decisive for the kinetics of the release of the active agents. […] For comparative purposes, the release of pure caffeine, not retarded and filled in a capsule has been drawn in.",
  "data": [
    {"smiles": "Cn1c(=O)c2c(ncn2C)n(C)c1=O", "note": "[caffeine]", "values": [
      {"measurement": "Time of release for the total dose", "value": "about 15 minutes"}
    ]}
  ]
}
